Key:
[1] = test system: HepG2 (liver) cancer cell line; conditions: cited from earlier work
[2] = Lipophilicity, octanol:water shake-flask method with ICP-OES copper quantification; conditions: copper by ICP-OES, triplicate
Protocol: Due to the low aqueous solubility of [Cu(PT)2], inductively coupled plasma-optical emission spectroscopy (ICP-OES) was used to quantify copper in the octanol and water layers (see SI).
General procedure for logP measurement:
Stock solutions (10 mM) of the tested copper complexes were prepared in DMSO solvent.
Water and octanol were saturated with the other solvent to match the final shake-flask
conditions. Next, log P values were determined using the shake-flask method. For each
complex, 60 µl of the stock solution was added to a mixture of 3 ml water and 3 ml n-octanol.
The solution was shaken by hand and vortexed. The layers were separated and analysed by
inductively coupled plasma optical emission spectroscopy (ICP-OES). For the octanol layer,
100 µl was collected in a vial and the solvent was evaporated under high vacuum. Next, the
residue was dissolved in 100 µl methanol and further diluted with 10 ml of 5% aqueous nitric
acid (HNO 3) solution for digestion. For the water layer, 1 ml of solution was diluted with 9 ml
of 5% aqueous HNO 3 solution. After analysis through ICP-OES technique, the amount of
copper in each sample was determined in ppm. To remove background copper, the exact
conditions were repeated in the absence of copper pyrithione complexes and the values were
subtracted from the measured values. The partition coefficient (P) and respective logP values

[3] = Thermodynamic stability constant, Benesi-Hildebrand UV-vis titration; format: physicochemical; conditions: Benesi-Hildebrand method, MeCN:H2O 1:1, absorbance at 320 nm
Protocol: (§1) Where [M] is concentration of copper, [L] is concentration of the activated ligand, b is the pathlength, which was kept at 1 cm, ɛ is molar extinction coefficient of the complex, A is absorbance and K = binding constant.
(§2) All cell lines were maintained as monolayers in either T75 or T175 flasks in complete high glucose DMEM media (supplemented with 10% Fetal Bovine Serum, 1% sodium pyruvate, 1% L-glutamine, 1% penstrep). All cell lines were seeded at 4000 cells/well in a clear-bottom 96-well plate and incubated for 24 h for cells to adhere. The cells were treated with varying concentrations of each complex and left to incubate for a further 24 h. MTT reagent (20 mL, 5 mg/mL) was added to each well, and the plates were incubated for 3 h. The media was removed by aspiration, followed by the addition of DMSO (150 mL) to solubilise the formazan. The absorbance was read using a Clariostar plate reader at 540 nm. Results were plotted on a logarithmic scale, and the half maximal inhibitory concentration (IC 50) was determined from a triplicate of triplicate repeats and reported as an IC 50 ± Standard Deviation (SD).

[4] = test system: NCI-H929 (myeloma) cancer cell line; conditions: cited from earlier work
[5] = test system: non-cancerous retinal epithelial ARPE-19 cells; assay: Cell viability (MTT) assay, ARPE-19; format: cell-based; conditions: 24 h incubation, n = 9, MTT; read-out: IC50 ± SD, ARPE-19
Protocol: (§3) The potential therapeutic activity of the copper pyrithione complexes was determined by screening complexes for 24 hours against human cancer cell lines MCF-7 (breast) and MIA PaCa-2 (pancreatic), alongside a non-cancerous epithelial cell line ARPE-19 (retinal). As controls, cisplatin and CuCl2·2H2O were also included in the screen (Table 2). […]
as §2, with “(SD). […]” for “(SD).”

[6] = Solubility by observation; conditions: aqueous and organic solvents, qualitative
MCF-7 cells [7] = assay: Reactive oxygen species study, H2DCFDA stain (Method 1); format: cell-based, human; conditions: complex at 10 μM for 1 h, H2DCFDA 20 μM for 30 min
Excerpt: To understand a potential mechanism of action, we determined production of reactive oxygen species (ROS) using fluorescent microscopy assays. ROS production is a common mode of therapeutic activity of copper complexes.[43] […] In the presence of ROS, H2DCFDA converts to a fluorescent dye that can be observed using microscopy. […] By contrast, control cells with no pyrithione complex added show little fluorescence (Fig. 6A). […] (Fig. 6B), [Cu(6-Me-PT)2] (Fig. 6C), and [Cu(3-OMe-PT)2] […] (Fig. 6D) was weaker. This variation correlates well with the cytotoxicity data in Table 2, with the methyl and methoxy complexes also showing the highest activity.
Next, cells were dosed at two concentrations of pyrithione complex to determine whether production of ROS is dose-dependent. Results for [Cu(3-OMe-PT)2] are shown at 1 μM (Fig. 6E) and 10 μM (Fig. 6F) after 1 hour; results for other complexes are shown in the SI (Fig. S11 and 12). In all cases, the fluorescence intensity increases in assays with 10 μM complex, compared to assays with 1 μM complex, supporting a mode of action where increasing complex concentration leads to increased ROS generation and higher cytotoxicity. […]
absorbance and K = binding constant. […]
The cells were treated with varying
Results were plotted on a
Reactive oxygen species study:
Method 1: 2′,7′-dichlorodihydrofluorescein diacetate (H 2DCFDA) stain: […]
untreated sample (negative control). After this time, 2′,7′-dichlorodihydrofluorescein diacetate […]
Stock solutions of the compounds (5 mM) were made

[8] = test system: U266 (myeloma) cancer cell line; conditions: cited from earlier work
MCF-7 cells [9] = conditions: dosed, fixed
Protocol: as §1
as §2, with “MTT reagent (20 mL, 5 mg/mL) was added to each well, and the plates were incubated for 3 h. The media was removed by aspiration, followed by the addition of DMSO (150 mL) to solubilise the formazan.” left out, “(SD). […]” for “(SD).”
MCF-7 cells were seeded into a black 96 well optical bottom plate at 8000 cells/well in phenol-red free complete DMEM medium (100 μl), and incubated at 37 °C and 5% CO 2 for 24 h. […] Cells were gently washed with PBS (2 x 100 µl), and 100 µl of PBS was added to each well before reading.
Fluorescence images were obtained using Zeiss Axio Observer 7 inverted microscope at excitation at 488 nm and emission at 509 nm, and analysed using ZEN 3.8 software. […]

[10] = test system: pancreatic cancer MIA PaCa-2 cells; assay: Cell viability (MTT) assay, MIA PaCa-2; format: cell-based, human; conditions: for IC50: 24 h incubation, n = 9, MTT, read-out: IC50 ± SD, MIA PaCa-2
Protocol: as §3
as §2, with “(SD). […]” for “(SD).”

[11] = test system: breast cancer MCF-7 cells; assay: Cell viability (MTT) assay, MCF-7; format: cell-based, human; conditions: for IC50: 24 h incubation, n = 9, MTT, read-out: IC50 ± SD, MCF-7; for Selectivity index (SI) against MCF-7: IC50 against non-cancerous ARPE-19 cells divided by IC50 against MCF-7
Protocol: as §3
as §2, with “(SD). […]” for “(SD).”

[12] = test system: MCF-7 (breast) cancer cell line; conditions: cited from earlier work

Compound	IC50 against HepG2 [1]	Log P [2]	Log(K/(M^−2)) [3]	IC50 against NCI-H929 [4]	IC50 [5]	Solubility (by observation) [6]	ROS production, H2DCFDA fluorescence (MCF-7 cells [7])	IC50 against U266 [8]	ROS levels compared to menadione, CellROX stain (MCF-7 cells [9])	IC50 [10]	IC50 [11]	IC50 against MCF-7 [12]	Selectivity index (SI) against MIA PaCa-2 ([10]; IC50 against non-cancerous ARPE-19 cells divided by IC50 against MIA PaCa-2)	Selectivity index (SI) against MCF-7 [11]
On1ccccc1=S.On1ccccc1=S.[Cu] [[Cu(PT)2], copper pyrithione]	submicromolar	2.34	7.528 ± 0.004	submicromolar	410 ± 50 nM	low solubility	brightest fluorescence	submicromolar	lower levels of ROS	2220 ± 80 nM	270 ± 10 nM	submicromolar	–	–
Cc1cc[n+]([O-])c([S][Cu][S]c2cc(C)cc[n+]2[O-])c1 [[Cu(4-Me-PT)2]]	–	–	–	–	1800 ± 100 nM	–	–	–	–	8500 ± 300 nM	690 ± 20 nM	–	–	–
[Cl][Cu][Cl] [CuCl2·2H2O, reference compound]	–	–	–	–	83000 ± 2000 nM	–	–	–	–	> 100000 nM	> 100000 nM	–	–	–
N.N.[Cl][Pt][Cl] [Cisplatin, reference compound]	–	–	–	–	13000 ± 100 nM	–	–	–	–	> 100000 nM	40000 ± 1000 nM	–	< 0.13	–
Cc1cccn([O-])c1=S.Cc1cccn([O-])c1=S.[Cu+2] [[Cu(3-Me-PT)2]]	–	–	–	–	2200 ± 100 nM	–	–	–	–	7100 ± 200 nM	347 ± 6 nM	–	–	6.34
COc1ccc[n+]([O-])c1[S][Cu][S]c1c(OC)ccc[n+]1[O-] [[Cu(3-OMe-PT)2]]	–	–	7.560 ± 0.002	–	870 ± 40 nM	–	brightest fluorescence	–	–	2700 ± 100 nM	220 ± 10 nM	–	–	3.95
[Cu+2].[O-]n1ccc(C(F)(F)F)cc1=S.[O-]n1ccc(C(F)(F)F)cc1=S [[Cu(4-CF3-PT)2]]	–	–	–	–	17300 ± 400 nM	–	–	–	–	21600 ± 400 nM	8900 ± 300 nM	–	–	–
Cc1cccc([S][Cu][S]c2cccc(C)[n+]2[O-])[n+]1[O-] [[Cu(6-Me-PT)2]]	–	–	7.498 ± 0.005	–	570 ± 30 nM	–	brightest fluorescence	–	–	2100 ± 100 nM	570 ± 10 nM	–	–	–

— publication PMC12519996, “Copper pyrithione complexes with endoplasmic reticulum localisation showing anticancer activity via ROS generation” (Chemical Science, 2025)
